Experiment [1] addresses T1, HIV-1 RT (Human immunodeficiency virus type 1 group M subtype B, UniProt P04585). Put plainly: Kinetic analysis of HIV-1 RT inhibition. Type of experiment: biochemical.
Experiment [2] concerns the target T1, HIV-1 RT. Put plainly: Site-specific Fe2+ footprinting, post-translocation trapping. Type of experiment: binding.
In experiment [3] the target is T1, HIV-1 RT. In words: HIV-1 RT assay with homopolymeric template/primers. Type of experiment: biochemical. The note with it: IC50 HIV-1 RT.
A further experiment relates to HIV-1 RT Y181C. Conditions: Poly rC.dG [^3H]dGTP.

With `Nc1nc2c(ncn2[C@@H]2CC[C@H](OC(C(=O)O)P(=O)(O)O)C2)c(=O)[nH]1` (mixture of isomers) [(L,D)-(±)G-α-CNP, cis-9-{4-[Carboxy(phosphono)methoxy]cyclopentan-1-yl}guanine], the inhibition constant Ki on HIV-1 RT [1] (competitive model, varying dGTP, poly rC.dG) stood at 455 nM; at HIV-1 RT [1] (competitive model, varying poly rC.dG), 35 nM; at HIV-1 RT [1] (mixed model enzyme inhibition, varying dGTP, poly rC.dG), 944 nM; at HIV-1 RT [1] (mixed model enzyme inhibition, varying poly rC.dG), 832 nM; on HIV-1 RT [1] (non-competitive model, varying dGTP, poly rC.dG), 1300 nM; on HIV-1 RT [1] (non-competitive model, varying poly rC.dG), 169 nM. Further, the “Most likely mode of inhibition” value on HIV-1 RT [1] (varying dGTP, poly rC.dG) is “Competitive”; at HIV-1 RT [1] (varying poly rC.dG), “Non-competitive”. Moreover, the “α (alpha-value), mixed model enzyme inhibition” value stood at 1.799 at HIV-1 RT [1] (varying dGTP, poly rC.dG) and 0.147 on HIV-1 RT [1] (varying poly rC.dG). Further, at HIV-1 RT [2], the EC50 was determined as 44 ± 2 nM. Besides, the IC50 against HIV-1 RT [3] (poly rA.dT, [^3H]dTTP) stood at 536000 nM; against HIV-1 RT [3] (poly rC.dG, [^3H]dGTP), 620 ± 190 nM. In addition, in the experiment on HIV-1 RT Y181C, the “Fold-resistance compared to wild-type” value stood at 5.2 fold.

The values above are taken from PMC5557014 (Biochemical pharmacology, 2017).
